“Also recorded” adds a separate entry of the source.
Columns and labels:
TNKS2 = target: T1, TNKS2 (Homo sapiens, UniProt Q9H2K2); details: cited from earlier work
T1 sequence (Q9H2K2 1-1166): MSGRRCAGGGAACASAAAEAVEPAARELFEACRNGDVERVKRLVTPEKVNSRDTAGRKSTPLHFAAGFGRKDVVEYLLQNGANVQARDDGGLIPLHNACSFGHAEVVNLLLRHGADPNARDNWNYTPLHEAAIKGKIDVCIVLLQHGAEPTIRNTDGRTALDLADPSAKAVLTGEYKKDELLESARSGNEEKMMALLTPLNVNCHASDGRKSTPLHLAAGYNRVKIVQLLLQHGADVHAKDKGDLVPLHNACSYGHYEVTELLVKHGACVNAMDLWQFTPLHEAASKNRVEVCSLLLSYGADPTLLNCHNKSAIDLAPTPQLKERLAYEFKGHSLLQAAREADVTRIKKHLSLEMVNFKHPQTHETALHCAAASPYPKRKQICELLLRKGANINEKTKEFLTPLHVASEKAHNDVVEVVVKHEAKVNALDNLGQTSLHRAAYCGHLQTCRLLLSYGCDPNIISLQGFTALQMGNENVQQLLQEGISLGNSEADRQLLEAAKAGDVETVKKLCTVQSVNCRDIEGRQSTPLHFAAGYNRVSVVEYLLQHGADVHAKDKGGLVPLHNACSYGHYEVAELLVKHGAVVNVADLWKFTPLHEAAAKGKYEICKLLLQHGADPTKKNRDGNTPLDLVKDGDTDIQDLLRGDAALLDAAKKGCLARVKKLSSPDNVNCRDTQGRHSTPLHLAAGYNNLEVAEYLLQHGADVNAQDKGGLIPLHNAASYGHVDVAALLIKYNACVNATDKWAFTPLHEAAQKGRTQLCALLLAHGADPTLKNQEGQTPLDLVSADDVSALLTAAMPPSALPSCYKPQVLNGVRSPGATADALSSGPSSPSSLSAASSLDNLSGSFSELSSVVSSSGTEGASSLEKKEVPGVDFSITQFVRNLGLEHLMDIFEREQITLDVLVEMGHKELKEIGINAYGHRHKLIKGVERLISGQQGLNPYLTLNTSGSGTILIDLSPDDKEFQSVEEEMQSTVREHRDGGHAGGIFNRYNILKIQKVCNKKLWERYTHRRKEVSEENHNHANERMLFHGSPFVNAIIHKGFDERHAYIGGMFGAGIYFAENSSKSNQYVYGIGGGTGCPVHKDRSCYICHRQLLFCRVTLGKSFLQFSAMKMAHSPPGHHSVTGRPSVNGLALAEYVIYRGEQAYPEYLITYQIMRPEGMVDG

PORCN [1] = details: HEK293 cells; read-out: IC50, Wnt3A-mediated activation of a multimerized TCF-binding site driving luciferase; cited from earlier work
[2] = tested on: voltage-gated Na+ channels; type: cell-based, human
[3] = tested on: spontaneous synaptic activity (EPSCs) of neurons in hCS slices; test: Spontaneous EPSCs in acute hCS slice preparation (whole cell recording); type: cell-based, human; details: kynurenic acid 1 mM bath application; n=6 cells, P=0.0008
Description: hCS were removed from Neurobasal-B27 media, quickly fixed to a block of 4% agarose, and covered in ice-cold oxygenated (95% 02 and 5% CO2) ACSF containing 126 mM NaCl, 2.5 mM KCl, 1.25 mM NaH2PO4, 2 mM MgCl2, 2 mM CaCl2), 26 mM NaHCO3and 10 mM glucose. 250 μm thick slices were cut using a Leica VT1200 vibrating microtome. After slicing, sections were moved to continuously oxygenated warm (˜32° C.) ACSF. Slices were incubated in warm ACSF for at least one hour prior to recording.
Whole cell patch clamp recordings were made at 22-25° C. Slices were superfused at a rate of 3 ml/min. Patch-clamp recordings were made using a MultiClamp 700A amplifier with Clampex 10.3 software. 3-5 MO borosilicate glass recording electrodes were filled with internal solution containing 120 mM potassium gluconate, 11 mM KCl, 1 mM MgCl2, 1 mM CaCl2, 10 mM HEPES, 1 mM EGTA, pH adjusted to 7.4 with KOH (290 mOsm). To determine if EPSCs recorded in voltage clamp are glutamate dependent, the glutamate receptor blocker kynurenic acid (1 mM) was added to the bath solution following at minimum 5 min of baseline recording. Evoked responses were produced by extracellular monopolar tungsten electrode placed 100-300 μm from the whole cell recording. […]

PORCN [4] = details: read-out: EC50, Porcn inhibition; cited from earlier work
Wnt signaling = details: TM3 cells; read-out: IC50, inhibition of Wnt signaling; cited from earlier work
BMP signaling = details: cited from earlier work
[5] = target: element-binding protein (CBP) (Homo sapiens, UniProt Q92793); details: cited from earlier work
[6] = tested on: Wnt-stimulated cellular responses; details: cited from earlier work
[7] = tested on: Wnt processing and secretion; details: cell-free assay; read-out: 1050, inhibition of Wnt processing and secretion; cited from earlier work

Sequence of element-binding protein (CBP) (Q92793 whole entry): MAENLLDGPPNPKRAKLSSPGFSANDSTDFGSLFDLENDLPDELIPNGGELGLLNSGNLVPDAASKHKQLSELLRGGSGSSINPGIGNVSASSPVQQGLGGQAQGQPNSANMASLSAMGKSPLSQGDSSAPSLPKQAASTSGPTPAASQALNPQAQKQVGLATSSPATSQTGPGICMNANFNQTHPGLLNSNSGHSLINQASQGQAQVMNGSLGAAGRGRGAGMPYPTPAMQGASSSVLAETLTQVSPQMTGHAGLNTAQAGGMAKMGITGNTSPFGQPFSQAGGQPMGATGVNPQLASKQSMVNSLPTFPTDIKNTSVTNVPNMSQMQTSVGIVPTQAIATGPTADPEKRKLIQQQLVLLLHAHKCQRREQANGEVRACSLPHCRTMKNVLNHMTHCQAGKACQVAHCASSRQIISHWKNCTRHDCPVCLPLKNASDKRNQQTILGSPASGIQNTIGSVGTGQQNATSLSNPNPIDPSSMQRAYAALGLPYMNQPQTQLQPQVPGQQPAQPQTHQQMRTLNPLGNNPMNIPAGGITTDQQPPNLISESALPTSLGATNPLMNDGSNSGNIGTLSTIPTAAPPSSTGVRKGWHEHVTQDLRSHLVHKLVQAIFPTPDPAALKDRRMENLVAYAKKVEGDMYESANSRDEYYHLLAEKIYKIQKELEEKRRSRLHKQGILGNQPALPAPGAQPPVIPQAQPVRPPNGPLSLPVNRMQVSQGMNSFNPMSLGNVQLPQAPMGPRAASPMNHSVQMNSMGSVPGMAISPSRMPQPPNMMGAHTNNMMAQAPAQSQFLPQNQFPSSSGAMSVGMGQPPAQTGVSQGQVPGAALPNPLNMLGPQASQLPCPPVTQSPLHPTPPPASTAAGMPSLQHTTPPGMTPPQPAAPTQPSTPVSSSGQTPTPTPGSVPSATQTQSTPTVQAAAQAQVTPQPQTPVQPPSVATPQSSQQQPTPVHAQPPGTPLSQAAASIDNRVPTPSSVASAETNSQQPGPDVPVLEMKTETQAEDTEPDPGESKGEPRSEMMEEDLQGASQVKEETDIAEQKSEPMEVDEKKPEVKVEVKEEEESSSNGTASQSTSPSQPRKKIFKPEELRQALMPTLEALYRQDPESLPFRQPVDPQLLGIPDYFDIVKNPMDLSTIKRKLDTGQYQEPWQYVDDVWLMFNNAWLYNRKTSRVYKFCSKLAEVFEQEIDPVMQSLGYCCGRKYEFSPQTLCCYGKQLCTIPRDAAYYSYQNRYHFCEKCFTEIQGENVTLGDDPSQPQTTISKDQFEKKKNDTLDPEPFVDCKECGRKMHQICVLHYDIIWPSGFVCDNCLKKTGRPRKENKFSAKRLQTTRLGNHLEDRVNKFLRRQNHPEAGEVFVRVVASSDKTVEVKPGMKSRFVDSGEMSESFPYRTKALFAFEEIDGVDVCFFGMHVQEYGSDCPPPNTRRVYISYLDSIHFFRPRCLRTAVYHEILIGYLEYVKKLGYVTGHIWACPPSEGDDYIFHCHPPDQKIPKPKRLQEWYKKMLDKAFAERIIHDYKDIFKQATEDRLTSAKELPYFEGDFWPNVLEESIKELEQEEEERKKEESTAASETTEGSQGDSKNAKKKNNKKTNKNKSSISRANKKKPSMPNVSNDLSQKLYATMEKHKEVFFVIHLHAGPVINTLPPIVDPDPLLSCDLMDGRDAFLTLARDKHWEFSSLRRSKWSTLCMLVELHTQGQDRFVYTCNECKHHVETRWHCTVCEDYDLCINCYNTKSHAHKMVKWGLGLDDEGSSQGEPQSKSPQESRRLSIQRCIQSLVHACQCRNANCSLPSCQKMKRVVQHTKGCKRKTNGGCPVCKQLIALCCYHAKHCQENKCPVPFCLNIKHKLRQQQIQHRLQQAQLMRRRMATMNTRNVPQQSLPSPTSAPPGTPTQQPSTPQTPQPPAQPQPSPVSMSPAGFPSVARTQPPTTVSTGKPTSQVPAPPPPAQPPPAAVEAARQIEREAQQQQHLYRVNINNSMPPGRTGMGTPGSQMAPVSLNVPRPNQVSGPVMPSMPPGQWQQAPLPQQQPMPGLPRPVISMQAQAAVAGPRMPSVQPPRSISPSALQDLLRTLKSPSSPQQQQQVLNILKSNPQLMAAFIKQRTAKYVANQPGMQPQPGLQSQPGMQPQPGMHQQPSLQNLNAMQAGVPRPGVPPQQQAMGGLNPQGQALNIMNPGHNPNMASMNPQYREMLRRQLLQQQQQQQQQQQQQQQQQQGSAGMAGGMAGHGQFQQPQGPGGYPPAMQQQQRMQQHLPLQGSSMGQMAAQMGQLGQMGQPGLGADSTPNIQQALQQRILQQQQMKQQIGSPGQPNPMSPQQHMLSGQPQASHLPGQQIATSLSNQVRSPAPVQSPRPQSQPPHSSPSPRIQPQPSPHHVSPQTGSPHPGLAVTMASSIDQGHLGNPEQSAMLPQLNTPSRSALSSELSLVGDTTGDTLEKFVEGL

Compound: COc1ccc(-n2c(SCCCN3C(=O)c4cccc5cccc(c45)C3=O)nnc2-c2ccncc2)cc1 [WIKI4]
- IC50 (TNKS2): 15 nM

Compound: Wnt-059 (C59)
- IC50 (PORCN [1]): 0.074 nM

Compound: NC1=N[C@H](O)[C@H]2[C@H]3O[C@]4(O)O[C@@H]([C@@H](O)[C@@]2(N1)[C@@H]4O)[C@]3(O)CO [TTX, tetrodotoxin]
- block of transient inward voltage-gated Na+ current [2]: blocks

Compound: O=C(O)c1cc(=O)c2ccccc2[nH]1 [kynurenic acid]
- spontaneous synaptic activity (EPSCs) in sliced hCS [3]: significantly reduced; also recorded: blocked

Compound: O=C(CSc1nc2c(c(=O)n1-c1ccccc1)SCC2)Nc1ccc(-c2ccccc2)cn1 [IWP-L6]
- EC50 (PORCN [4]): 0.5 nM

Compound: Cc1cc(-c2ncc(CC(=O)Nc3ccc(-c4cnccn4)cn3)cc2C)ccn1 [LGK-974]
- IC50 (Wnt signaling): 0.4 nM

Compound: NC(=O)c1ccc(-c2nc(-c3ccc4c(c3)OCO4)c(-c3ccccn3)[nH]2)cc1 [SB-431542]
- effect on BMP signaling (BMP signaling): no effect

Compound: O=C1[C@H](Cc2ccc(O)cc2)N2C(=O)CCN(C(=O)NCc3ccccc3)[C@H]2CN1Cc1cccc2ccccc12 [ICG-001]
- IC50 [5]: 3000 nM

Compound: Cc1ccc2nc(NC(=O)CSc3nc4c(c(=O)n3-c3ccccc3)SCC4)sc2c1 [IWP-2]
- effect against Wnt-stimulated cellular responses [6]: no effect
- IC50 [7]: 27 nM
